Assays:
[1] = test system: HT29 (Colon Cancer); test: NCI one dose, HT29; type: cell-based, human; settings: HT29, 1.00E-5 Molar one dose
Experimental: (§1) 3.4. Cell Proliferation Assay
(§2) Selected compounds were tested on a panel of 60 human cancer cell lines at the National Cancer Institute (NCI), Germantown, MD, USA. The cytotoxicity studies were conducted using a 48 h exposure protocol using the sulfo-rhodamine B assay.

[2] = test system: TK-10 (Renal Cancer); test: NCI one dose, TK-10; type: cell-based, human; settings: TK-10, 1.00E-5 Molar one dose
Experimental: as §1, §2

[3] = test system: HOP-62 (Non-Small Cell Lung Cancer); test: NCI one dose, HOP-62; type: cell-based, human; settings: HOP-62, 1.00E-5 Molar one dose
Experimental: as §1, §2

[4] = test system: NCI/ADR-RES (Ovarian Cancer); test: NCI one dose, NCI/ADR-RES; type: cell-based, human; settings: 1.00E-5 Molar one dose
Experimental: as §1, §2

[5] = test system: MDA-MB-468 breast cancer cells; test: NCI one dose, MDA-MB-468; type: cell-based, human; settings: for Growth Percent: MDA-MB-468, 1.00E-5 Molar one dose
Experimental: as §1, §2

[6] = test system: M14 (Melanoma); test: NCI one dose, M14; type: cell-based, human; settings: M14, 1.00E-5 Molar one dose
Experimental: as §1, §2

[7] = target: human farnesyltransferase (FTase) (Homo sapiens, UniProt P49354+P49356); test: FTase inhibitory assay (fluorescence, Dansyl-GCVLS); type: biochemical; settings: for % FTI: inhibition of human FTase at 100 μM of tested compound, mean of two experiments
Method in brief: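 Partially purified recombinant FTase with Dansyl-GCVLS and farnesyl pyrophosphate in Tris/HCl pH 7.5 (DTT, MgCl2, ZnCl2, octyl-glucoside); fluorescence (ex 340/em 486 nm) read 15 min at 30 °C. IC50 by regression for compounds inhibiting >60% at 100 µM; kinetics varied FPP (Dns-GCVLS 2.5 μM) or peptide (FPP 10 μM).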

[8] = test system: NCI-H460 (Non-Small Cell Lung Cancer); test: NCI one dose, NCI-H460; type: cell-based, human; settings: NCI-H460, 1.00E-5 Molar one dose
Experimental: as §1, §2

[9] = test system: NCI-H522 non-small cell lung cancer cells; test: NCI cell proliferation, NCI-H522; type: cell-based, human; settings: for inhibition at 10 µM: read-out: % Cancer cell growth Inhibition (NCI-H522); for Growth Percent: NCI-H522, 1.00E-5 Molar one dose
Experimental: as §1, §2

[10] = test system: SK-MEL-28 (Melanoma); test: NCI one dose, SK-MEL-28; type: cell-based, human; settings: SK-MEL-28, 1.00E-5 Molar one dose
Experimental: as §1, §2

[11] = test system: OVCAR-8 (Ovarian Cancer); test: NCI one dose, OVCAR-8; type: cell-based, human; settings: OVCAR-8, 1.00E-5 Molar one dose
Experimental: as §1, §2

[12] = test system: SW-620 (Colon Cancer); test: NCI one dose, SW-620; type: cell-based, human; settings: SW-620, 1.00E-5 Molar one dose
Experimental: as §1, §2

[13] = test system: HCT-116 (Colon Cancer); test: NCI one dose, HCT-116; type: cell-based, human; settings: HCT-116, 1.00E-5 Molar one dose
Experimental: as §1, §2

[14] = test system: HOP-92 (Non-Small Cell Lung Cancer); test: NCI one dose, HOP-92; type: cell-based, human; settings: HOP-92, 1.00E-5 Molar one dose
Experimental: as §1, §2

[15] = test system: MDA-MB-231/ATCC (Breast Cancer); test: NCI one dose, MDA-MB-231/ATCC; type: cell-based, human; settings: 1.00E-5 Molar one dose
Experimental: as §1, §2

[16] = test system: MCF7 (Breast Cancer); test: NCI one dose, MCF7; type: cell-based, human; settings: MCF7, 1.00E-5 Molar one dose
Experimental: as §1, §2

[17] = test system: SK-MEL-5 (Melanoma); test: NCI one dose, SK-MEL-5; type: cell-based, human; settings: SK-MEL-5, 1.00E-5 Molar one dose
Experimental: as §1, §2

[18] = test system: HCT-15 (Colon Cancer); test: NCI one dose, HCT-15; type: cell-based, human; settings: HCT-15, 1.00E-5 Molar one dose
Experimental: as §1, §2

[19] = test system: DU-145 (Prostate Cancer); test: NCI one dose, DU-145; type: cell-based, human; settings: DU-145, 1.00E-5 Molar one dose
Experimental: as §1, §2

[20] = test system: MDA-MB-435 (Melanoma); test: NCI one dose, MDA-MB-435; type: cell-based, human; settings: MDA-MB-435, 1.00E-5 Molar one dose
Experimental: as §1, §2

[21] = test system: PC-3 (Prostate Cancer); test: NCI one dose, PC-3; type: cell-based, human; settings: PC-3, 1.00E-5 Molar one dose
Experimental: as §1, §2

[22] = test system: SNB-75 (CNS Cancer); test: NCI one dose, SNB-75; type: cell-based, human; settings: SNB-75, 1.00E-5 Molar one dose
Experimental: as §1, §2

[23] = test system: 786-0 (Renal Cancer); test: NCI one dose, 786-0; type: cell-based, human; settings: 786-0, 1.00E-5 Molar one dose
Experimental: as §1, §2

[24] = test system: MOLT-4 (Leukemia); test: NCI one dose, MOLT-4; type: cell-based, human; settings: MOLT-4, 1.00E-5 Molar one dose
Experimental: as §1, §2

[25] = test system: SR (Leukemia); test: NCI one dose, SR; type: cell-based, human; settings: 1.00E-5 Molar one dose
Experimental: as §1, §2

[26] = test system: A549/ATCC (Non-Small Cell Lung Cancer); test: NCI one dose, A549/ATCC; type: cell-based, human; settings: 1.00E-5 Molar one dose
Experimental: as §1, §2

[27] = test system: UO-31 renal cancer cells; test: NCI one dose, UO-31; type: cell-based, human; settings: for Growth Percent: UO-31, 1.00E-5 Molar one dose
Experimental: as §1, §2

% FTI [7] | Structure (SMILES) | Growth Percent [1] | Growth Percent [2] | Growth Percent [3] | Growth Percent [4] | Growth Percent [5] | Growth Percent [6] | Growth Percent [8] | inhibition at 10 µM ([9]; Homo sapiens, NCI-H522) | Growth Percent [9] | Growth Percent [10] | Growth Percent [11] | Growth Percent [12] | Growth Percent [13] | Growth Percent [14] | Growth Percent [15] | Growth Percent [16] | Growth Percent [17] | Growth Percent [18] | Growth Percent [19] | also measured
78% | COc1ccc(CNC(=O)[C@@H]2CS[C@@]3(C)c4ccccc4C(=O)N23)cc1OC [4bI] | 77.04% | 95.68% | 97.01% | 100.18% | 70.36% | 107.68% | 103.23% | 45% | 54.70% | 104.89% | 91.42% | 101.58% | 95.39% | 93.76% | 98.00% | 87.17% | 88.12% | 112.46% | 103.50% | inhibition at 10 µM ([5]; Homo sapiens, MDA-MB-468, 10 µM single dose, read-out: inhibition of growth of MDA-MB-468 breast cancer cells): 30%; IC50 ([7]; human FTase in vitro): 0.0251 µM; GI50 ([9]; Homo sapiens, NCI-H522): 12.9 µM; Growth Percent [20]: 105.24%; Growth Percent [21]: 88.41%; Growth Percent [22]: 110.74%; Growth Percent [23]: 107.06%; Growth Percent [24]: 76.47%; Growth Percent [25]: 75.23%; Growth Percent [26]: 79.51%; inhibition at 10 µM ([27]; Homo sapiens, UO-31, 10 µM single dose, read-out: inhibition of growth of UO-31 renal cancer cells): 20%; Growth Percent [27]: 79.77%
56% | COc1cccc(CNC(=O)[C@@H]2CS[C@@]3(C)c4ccccc4C(=O)N23)c1 [4bE] | 89.19% | 95.45% | 98.17% | 98.88% | 93.38% | 104.58% | 104.83% | 33% | 67.45% | 112.92% | 90.08% | 104.85% | 104.89% | 101.27% | 105.57% | 89.13% | 101.12% | 102.87% | 106.55% | Growth Percent [20]: 98.34%; Growth Percent [21]: 96.89%; Growth Percent [22]: 98.09%; Growth Percent [23]: 105.14%; Growth Percent [24]: 85.50%; Growth Percent [25]: 81.22%; Growth Percent [26]: 76.25%; Growth Percent [27]: 91.68%
35% | COc1cccc(CNC(=O)[C@@H]2CS[C@H]3c4ccccc4C(=O)N23)c1 [4aE] | 89.79% | 89.04% | 96.82% | 106.48% | 106.71% | 107.40% | 113.41% | 26% | 74.09% | 113.63% | 100.28% | 108.22% | 102.32% | 99.32% | 107.16% | 98.52% | 106.50% | 105.05% | 104.21% | Growth Percent [20]: 107.01%; Growth Percent [21]: 98.06%; Growth Percent [22]: 100.11%; Growth Percent [23]: 102.72%; Growth Percent [24]: 80.83%; Growth Percent [25]: 84.95%; Growth Percent [26]: 83.51%; Growth Percent [27]: 97.14%
